Data published in PMC7883873, “Discovery of New Catalytic Topoisomerase II Inhibitors for Anticancer Therapeutics” (Frontiers in Oncology, 2021).

Assays:
[1] = system: GFP-AR transfected DU145 cells; experiment: AR subcellular localization by microscopy; format: cell-based; conditions: 20 µM, 24 h
[2] = system: DU145; experiment: Cell viability, MTS assay; format: cell-based; conditions: 0-20 µM; compared to AR-positive PCa cell lines
Procedure: (§1) Cell proliferation rates were measured by using the CellTitre 96 AqueousOne kit (Promega) and bromodeoxyuridine (BrdU) assay kit (Millipore) according to the manufacturer’s protocol as we have described ([51]). Cytotoxicity was evaluated by using the commercial kit (CAT# 8078, ThermoFisher). Culture media was collected and used to measure lactate dehydrogenase (LDH) levels by a colorimetric method following the manufacture’s protocol (ThermoFisher). Cell cycling was assessed by using BrdU incorporation into S-phase DNA by using the APC BrdU flow kit (BD Pharmingen; Franklin Lakes, New Jersey) according to the manufacturer’s protocol. 1 mM of BrdU was added to cells and incubated for 6 h. Cells were incubated with anti-BrdU antibody and stained with 7-AAD before processing the cells for flow cytometry ([52]). Immunoblotting assays followed the standard protocol as we have reported ([51]–[53]).

[3] = system: LNCaP95; experiment: Cell viability, MTS assay; format: cell-based; conditions: 0-20 µM
Procedure: as §1

[4] = system: BPH1; experiment: Cell viability, MTS assay; format: cell-based; conditions: 0-20 µM; compared to AR-positive PCa cell lines
Procedure: as §1

[5] = system: LNCaP; experiment: Cell viability, MTS assay; format: cell-based; conditions: 0-20 µM
Procedure: as §1

[6] = system: PC3; experiment: Cell viability, MTS assay; format: cell-based; conditions: 0-20 µM; compared to AR-positive PCa cell lines
Procedure: as §1

[7] = system: NCCIT testicular cells; experiment: Cell viability, MTS assay; format: cell-based; conditions: T60 alone, up to 20 µM
Procedure: as §1

[8] = system: MR49F; experiment: Cell viability, MTS assay; format: cell-based; conditions: 0-20 µM
Procedure: as §1

[9] = system: U937 leukemia cells; experiment: Cell viability, MTS assay; format: cell-based; conditions: T60 alone, up to 20 µM
Procedure: as §1

[10] = system: phospho-H2AXγ protein levels in K562 cells; experiment: Immunoblotting of phospho-H2AXγ (DNA damage); format: cell-based; conditions: 4 h
Procedure: as §1

[11] = target: T1, TOP2A (Homo sapiens, UniProt P11388); experiment: DNA relaxation assay (supercoiled pHOT-1 plasmid); format: biochemical; design: full-length human TOP2A and TOP2B protein (TopoGEN and Inspiralis respectively); purchased TopoGEN TG1001 (human TOP2 assay kit)
Procedure: The human TOP2A and TOP2B were used to perform DNA relaxation assays. […] The reaction was incubated at 37C for 2 h and stopped by adding 2 µl of 10% SDS and 1 µl of 250 mM of EDTA, followed by the addition of 50 µg/ml of proteinase K at 45 C for 1 h. The reaction was then resolved by electrophoresis on a 1% agarose gel at 80 V and stained with 0.5 µg/ml ethidium bromide for 15 min. DNA bands were visualized using a gel imager (Gel Doc™ EZ System) and quantified using the Image Studio™ Lite Quantification Software.

[12] = target: T1, TOP2A; experiment: Chromatin fractionation assay; format: cell-based; design: endogenous in cells; host or cells: K562 (the thermal shift text says HeLa, the legend says K562); K562 for chromatin fractionation; conditions: K562 cells, 0, 1, 20 µM, 24 hours
Procedure: (§2) In the thermal shift assays, cells were treated with vehicle or T60 for 1 h and split into equal aliquots to be heated at 37 to 46°. Protein lyses were collected to perform immunoblotting assays with TOP2 antibodies (Abcam 12318, Santa Cruz sc-13059 & sc-365071). Our chromatin fractionation assays followed the protocol as previously described (Méndez & Stillman, 2000; Wysocka, Reilly, & Herr, 2001). Briefly, K562 cells (4 × 10 ([7]) cells/ml) were collected and re-suspended in buffer A (10 mM HEPES [pH 7.9], 10 mM KCl, 1.5 mM MgCl2, 0.34 M sucrose, 10% glycerol, 1 mM DTT, and protease inhibitor cocktail), before Triton X-100 was added to final concentration at 0.1%. Cells were then incubated on ice for 10 min, and nuclei were collected by centrifugation at speed of 1,300g for 4 min at 4°C. The nuclei were then washed once with buffer A and then incubated with buffer B (3 mM EDTA, 0.2 mM EGTA, 1 mM DTT, and protease inhibitor cocktail [ROCHE]) for 30 min in ice. Insoluble chromatin was collected by centrifugation at 1,700g for 4 min at 4°C, and washed once with buffer B. Chromatin associated proteins were extracted by incubation with Buffer C [500 mM Tris-HCl (pH 6.8), 500 mM NaCl, and protease inhibitor cocktail (ROCHE)] followed by brief sonication. The supernatant was collected to perform immunoblotting assays with TOP2 antibodies as we have described ([51]–[53]).

[13] = target: T2, TOP2B (Homo sapiens, UniProt Q02880); experiment: DNA cleavage assay; format: biochemical; design: full-length human TOP2A and TOP2B protein (TopoGEN and Inspiralis respectively); purchased Inspiralis HTB205; conditions: co-treatment with 200 µM etoposide; 1, 100, 200 µM
Procedure: The reactions were incubated in 37C for 30 min and stopped by adding 2 µl of 10% SDS and 1 µl of 250 mM of EDTA, followed by the addition of 50 µg/ml of proteinase K at 45C for 30 min. The reaction was then resolved by electrophoresis on a 1% agarose gel containing […] ethidium bromide in TAE buffer at 60 V. DNA bands were visualized using a gel imager (Gel Doc™ EZ System) and quantified by using the Image Studio™ Lite Quantification Software.
Target sequence in this assay (Q02880 whole entry): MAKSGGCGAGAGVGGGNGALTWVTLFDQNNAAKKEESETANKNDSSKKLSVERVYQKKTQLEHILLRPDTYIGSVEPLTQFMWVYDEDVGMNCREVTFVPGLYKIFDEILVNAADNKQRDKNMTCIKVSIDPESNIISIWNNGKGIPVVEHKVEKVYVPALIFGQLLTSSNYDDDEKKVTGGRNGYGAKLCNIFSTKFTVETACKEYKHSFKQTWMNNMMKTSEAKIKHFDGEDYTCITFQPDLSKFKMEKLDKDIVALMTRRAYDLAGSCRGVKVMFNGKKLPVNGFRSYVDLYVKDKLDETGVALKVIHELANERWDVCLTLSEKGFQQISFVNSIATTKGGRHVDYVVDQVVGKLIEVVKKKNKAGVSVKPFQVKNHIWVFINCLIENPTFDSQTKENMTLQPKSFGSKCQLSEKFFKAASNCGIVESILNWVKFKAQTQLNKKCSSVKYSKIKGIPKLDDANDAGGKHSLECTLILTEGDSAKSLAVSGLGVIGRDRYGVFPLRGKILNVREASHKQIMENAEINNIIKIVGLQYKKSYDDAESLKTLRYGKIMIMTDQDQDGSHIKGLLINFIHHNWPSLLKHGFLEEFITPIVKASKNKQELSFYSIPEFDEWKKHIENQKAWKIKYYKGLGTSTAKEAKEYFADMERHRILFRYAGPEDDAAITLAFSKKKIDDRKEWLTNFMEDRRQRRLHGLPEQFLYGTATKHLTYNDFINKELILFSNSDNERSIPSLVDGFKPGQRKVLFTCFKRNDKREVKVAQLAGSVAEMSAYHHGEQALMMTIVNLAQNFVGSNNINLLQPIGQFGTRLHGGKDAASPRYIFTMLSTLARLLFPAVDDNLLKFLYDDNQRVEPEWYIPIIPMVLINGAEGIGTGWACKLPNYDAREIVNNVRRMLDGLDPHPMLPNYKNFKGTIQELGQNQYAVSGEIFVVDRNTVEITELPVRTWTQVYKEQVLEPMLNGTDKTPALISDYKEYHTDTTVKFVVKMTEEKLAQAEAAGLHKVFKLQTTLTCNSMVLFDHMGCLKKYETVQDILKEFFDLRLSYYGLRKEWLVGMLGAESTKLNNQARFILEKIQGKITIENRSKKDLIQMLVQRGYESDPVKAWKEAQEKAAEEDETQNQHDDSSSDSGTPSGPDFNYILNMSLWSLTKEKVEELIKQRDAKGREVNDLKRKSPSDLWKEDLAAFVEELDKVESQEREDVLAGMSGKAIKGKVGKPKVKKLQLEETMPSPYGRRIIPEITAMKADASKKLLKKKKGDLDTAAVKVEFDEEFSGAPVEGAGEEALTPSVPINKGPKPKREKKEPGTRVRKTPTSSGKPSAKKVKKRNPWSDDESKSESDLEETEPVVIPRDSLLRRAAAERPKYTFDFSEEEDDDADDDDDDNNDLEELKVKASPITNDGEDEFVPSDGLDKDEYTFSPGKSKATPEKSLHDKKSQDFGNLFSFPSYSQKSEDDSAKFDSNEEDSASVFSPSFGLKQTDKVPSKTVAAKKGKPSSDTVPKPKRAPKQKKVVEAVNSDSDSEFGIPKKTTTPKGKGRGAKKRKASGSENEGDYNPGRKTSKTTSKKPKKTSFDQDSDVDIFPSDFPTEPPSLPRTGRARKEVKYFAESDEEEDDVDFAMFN

[14] = target: T2, TOP2B; experiment: Cellular thermal shift assay; format: cell-based; design: endogenous in cells; host or cells: K562 (the thermal shift text says HeLa, the legend says K562); K562 for chromatin fractionation; conditions: 20 µM; vehicle 40C; Hela cells
Procedure: as §2
Target sequence in this assay (Q02880 2-1626 limits assumed): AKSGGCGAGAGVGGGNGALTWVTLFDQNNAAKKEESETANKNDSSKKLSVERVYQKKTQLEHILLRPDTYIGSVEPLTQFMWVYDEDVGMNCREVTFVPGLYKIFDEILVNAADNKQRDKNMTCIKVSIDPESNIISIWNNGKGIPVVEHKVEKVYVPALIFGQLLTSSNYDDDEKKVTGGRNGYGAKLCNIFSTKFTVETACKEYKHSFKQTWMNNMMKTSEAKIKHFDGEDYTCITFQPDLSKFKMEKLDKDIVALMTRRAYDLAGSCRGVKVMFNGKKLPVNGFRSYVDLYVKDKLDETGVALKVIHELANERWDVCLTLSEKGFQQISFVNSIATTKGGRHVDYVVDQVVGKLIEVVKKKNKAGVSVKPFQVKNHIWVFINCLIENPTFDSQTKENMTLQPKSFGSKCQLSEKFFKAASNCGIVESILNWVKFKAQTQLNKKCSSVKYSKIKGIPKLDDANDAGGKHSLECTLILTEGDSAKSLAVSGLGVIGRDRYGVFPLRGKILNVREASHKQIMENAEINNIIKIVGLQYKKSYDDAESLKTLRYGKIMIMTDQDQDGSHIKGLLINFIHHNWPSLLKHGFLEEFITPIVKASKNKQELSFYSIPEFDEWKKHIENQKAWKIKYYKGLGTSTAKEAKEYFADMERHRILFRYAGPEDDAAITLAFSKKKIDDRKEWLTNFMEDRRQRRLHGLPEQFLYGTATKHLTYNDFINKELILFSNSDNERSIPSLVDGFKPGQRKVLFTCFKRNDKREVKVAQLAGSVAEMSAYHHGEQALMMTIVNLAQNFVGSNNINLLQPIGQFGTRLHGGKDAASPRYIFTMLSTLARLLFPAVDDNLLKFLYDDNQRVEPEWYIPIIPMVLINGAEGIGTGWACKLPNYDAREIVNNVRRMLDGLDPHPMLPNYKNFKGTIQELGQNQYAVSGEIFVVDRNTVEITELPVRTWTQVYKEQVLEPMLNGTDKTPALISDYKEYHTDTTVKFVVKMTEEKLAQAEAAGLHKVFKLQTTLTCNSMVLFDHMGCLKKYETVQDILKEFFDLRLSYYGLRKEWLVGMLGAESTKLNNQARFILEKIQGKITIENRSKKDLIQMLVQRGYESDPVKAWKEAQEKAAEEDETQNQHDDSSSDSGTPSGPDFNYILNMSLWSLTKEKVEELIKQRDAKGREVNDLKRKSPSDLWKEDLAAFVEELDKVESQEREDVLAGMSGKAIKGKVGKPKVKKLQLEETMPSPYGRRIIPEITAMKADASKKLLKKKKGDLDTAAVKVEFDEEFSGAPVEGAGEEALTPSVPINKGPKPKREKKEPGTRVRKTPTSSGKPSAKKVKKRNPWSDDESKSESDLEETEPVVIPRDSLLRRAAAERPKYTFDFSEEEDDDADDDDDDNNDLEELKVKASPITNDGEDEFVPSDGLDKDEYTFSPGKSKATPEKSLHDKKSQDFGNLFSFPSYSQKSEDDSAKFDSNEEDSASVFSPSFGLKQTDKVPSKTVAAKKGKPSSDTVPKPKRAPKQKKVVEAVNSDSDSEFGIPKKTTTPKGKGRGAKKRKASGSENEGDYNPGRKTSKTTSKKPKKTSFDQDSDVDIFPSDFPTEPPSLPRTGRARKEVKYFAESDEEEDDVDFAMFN

[15] = target: T1, TOP2A; experiment: Cellular thermal shift assay; format: cell-based; design: endogenous in cells; host or cells: K562 (the thermal shift text says HeLa, the legend says K562); K562 for chromatin fractionation; conditions: 20 µM; vehicle 40C; Hela cells
Procedure: as §2

T1 sequence (P11388 whole entry): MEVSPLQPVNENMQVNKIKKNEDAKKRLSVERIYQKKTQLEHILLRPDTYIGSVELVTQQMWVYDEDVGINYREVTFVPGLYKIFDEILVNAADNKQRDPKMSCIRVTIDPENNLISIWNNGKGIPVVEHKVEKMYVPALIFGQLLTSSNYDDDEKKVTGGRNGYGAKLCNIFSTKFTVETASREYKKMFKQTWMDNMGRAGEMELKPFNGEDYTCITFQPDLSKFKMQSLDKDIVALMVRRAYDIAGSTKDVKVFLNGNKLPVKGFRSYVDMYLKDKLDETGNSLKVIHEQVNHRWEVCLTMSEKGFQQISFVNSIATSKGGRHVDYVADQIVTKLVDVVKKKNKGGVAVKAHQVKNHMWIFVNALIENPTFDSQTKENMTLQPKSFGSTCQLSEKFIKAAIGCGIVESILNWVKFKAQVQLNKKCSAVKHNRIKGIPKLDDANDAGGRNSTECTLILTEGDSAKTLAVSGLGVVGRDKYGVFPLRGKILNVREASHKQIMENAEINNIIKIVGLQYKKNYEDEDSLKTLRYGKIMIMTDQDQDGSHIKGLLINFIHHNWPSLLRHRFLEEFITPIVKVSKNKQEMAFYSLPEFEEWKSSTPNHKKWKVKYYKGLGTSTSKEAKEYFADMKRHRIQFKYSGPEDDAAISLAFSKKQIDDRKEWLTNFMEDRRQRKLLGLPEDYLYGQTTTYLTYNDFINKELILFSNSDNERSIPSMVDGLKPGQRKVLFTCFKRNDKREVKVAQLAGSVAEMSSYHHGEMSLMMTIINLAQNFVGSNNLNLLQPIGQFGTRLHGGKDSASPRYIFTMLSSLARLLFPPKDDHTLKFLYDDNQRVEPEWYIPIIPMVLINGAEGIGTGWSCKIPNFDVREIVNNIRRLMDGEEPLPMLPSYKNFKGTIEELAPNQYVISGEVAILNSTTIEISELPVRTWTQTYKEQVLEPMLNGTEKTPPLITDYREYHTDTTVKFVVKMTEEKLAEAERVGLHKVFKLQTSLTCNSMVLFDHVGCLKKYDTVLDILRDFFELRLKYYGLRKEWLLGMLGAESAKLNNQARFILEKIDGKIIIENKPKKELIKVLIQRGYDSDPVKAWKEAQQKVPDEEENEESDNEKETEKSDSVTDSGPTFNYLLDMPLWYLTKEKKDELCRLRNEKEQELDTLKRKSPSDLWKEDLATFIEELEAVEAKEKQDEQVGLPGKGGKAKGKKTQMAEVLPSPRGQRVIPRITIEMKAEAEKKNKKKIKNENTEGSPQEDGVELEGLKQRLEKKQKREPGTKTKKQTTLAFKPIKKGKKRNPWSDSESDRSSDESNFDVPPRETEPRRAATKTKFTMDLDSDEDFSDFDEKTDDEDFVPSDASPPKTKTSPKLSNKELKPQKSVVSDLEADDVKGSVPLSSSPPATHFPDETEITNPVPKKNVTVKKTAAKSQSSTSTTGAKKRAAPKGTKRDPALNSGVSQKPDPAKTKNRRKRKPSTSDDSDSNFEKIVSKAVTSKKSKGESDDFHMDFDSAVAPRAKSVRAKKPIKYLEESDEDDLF

`O=C(Nc1ccc(Nc2ccccc2)cc1)c1ccc[nH]c1=S` [T60] was tested, and the “Nuclear localization of GFP-AR, DU145” value [1] was “reduced nuclear localization”, the “Cell viability, DU145” value [2] was “to a much less extent” and the “Cell viability, LNCaP95” value [3] was “strongly suppressed”. For the same molecule, the “Cell viability, BPH1” value [4] was “to a much less extent”, the “Cell viability, LNCaP” value [5] was “strongly suppressed” and the “Cell viability, PC3” value [6] was “to a much less extent”. The “Inhibition of cell growth, NCCIT” value [7] was 50%, the “Cell viability, MR49F” value [8] was “strongly suppressed” and the “Inhibition of cell growth, U937” value [9] was “completely inhibited”. The “Effect on etoposide-induced phospho-H2AXγ protein levels” value ([10]; 20 µM, co-treated with 10–20 µM etoposide) was “inhibited etoposide-induced phospho-H2AXγ protein levels”, the “Intracellular DNA damage (phospho-H2AXγ protein levels)” value ([10]; 10–20 µM) was “did not cause intracellular DNA damage” and the “Inhibition of TOP2A activity changing supercoiled into relaxed plasmid DNA” value ([11]; Figure 3B) was “inhibited”. The IC50 ([11]; densitometry of SC bands, read-out: IC50, inhibition of TOP2A plasmid DNA relaxation) was ~4.7 µM, the “TOP2A association with chromatin” value [12] was “reduced” and the “Prevention of etoposide-induced DNA cleavage, TOP2B” value [13] was “prevented”. For the same molecule, the “Temperature up to which TOP2B protein is stabilized” value [14] was “up to 43 C” and the “Temperature up to which TOP2A protein is stabilized” value [15] was “up to 43 C”.
